According to patent publication US5856484A, “Sulfonylaminopyrimidine carboxylic acid derivatives having endothelin inhibiting activity” (Hoffmann-La Roche Inc., priority 1995, dated 1999):

Columns and labels:
[1] = biological target: T1, ETB receptors (Homo sapiens, UniProt P24530); test: Inhibition of endothelin binding to human placenta membranes (ETB receptors); settings: 125I-endothelin, 20° C. 2 hours or 4° C. 24 hours
T1 construct: Human placenta is homogenized in 5 mM Tris buffer; from tissue; host or cells: human placenta membranes
T1 sequence (P24530 27-442): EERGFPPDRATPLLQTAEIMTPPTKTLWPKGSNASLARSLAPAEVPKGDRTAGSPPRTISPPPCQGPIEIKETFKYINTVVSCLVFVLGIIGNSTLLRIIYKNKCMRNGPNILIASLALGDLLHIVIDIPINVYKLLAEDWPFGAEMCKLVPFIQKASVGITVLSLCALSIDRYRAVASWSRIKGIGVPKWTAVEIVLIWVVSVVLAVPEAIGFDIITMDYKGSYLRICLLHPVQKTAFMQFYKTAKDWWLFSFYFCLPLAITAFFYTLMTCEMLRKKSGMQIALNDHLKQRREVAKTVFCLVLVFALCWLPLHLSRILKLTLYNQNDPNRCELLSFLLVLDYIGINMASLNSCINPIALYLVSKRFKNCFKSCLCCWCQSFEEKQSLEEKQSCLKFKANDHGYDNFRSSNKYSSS
Procedure: II. Inhibition of endothelin binding to human placenta membranes (ETB receptors) (see Life Sci 44:1429 (1989))
Human placenta is homogenized in 5 mM Tris buffer, pH 7.4, which contains 1 mM MgCl2 and 250 mM sucrose. The homogenizate is centrifuged at 4° C. and 3000 g for 15 minutes, the supernatant containing the plasma membrane fraction is centrifuged at 72000 g for 30 minutes and the precipitate is washed with 75 mM Tris buffer, pH 7.4, which contains 25 mM MgCl2. Thereafter, precipitate obtained from in each case 10 g of original tissue is suspended in 1 ml of 75 mM Tris buffer, pH 7.4, containing 25 mM MgCl2 and 250 mM sucrose and freeze-dried at -20° C. in 1 ml aliquots.
(§1) For the binding assay, the freeze-dried membrane preparations are thawed and, after centrifugation at 20° C. and 25000 g for 10 minutes, re-suspended in assay buffer (50 mM Tris buffer, pH 7.4, containing 25 mM MnCl2, 1 mM EDTA and 0.5% bovine serum albumin). 100 μl of this membrane suspension containing 35 μg of protein are incubated with 50 μl of ^125 I-endotheline (specific activity 2200 (Ci/mMol) in assay buffer (25000 cpm, final concentration 20 pM) and 100 μl of assay buffer containing varying concentrations of test compound. The incubation is carried out at 20° C. for 2 hours or at 4° C. for 24 hours. The separation of free and membrane-bound radioligands is carried out by filtration over a glass fibre filter.
(§2) The inibitory activity on ETA and ETB receptors of compounds of formula I determined in these test procedures is given in Table 1 as the IC50, i.e. as the concentration [μM] which is required to inhibit 50% of the specific binding of ^125 I-endothelin.

[2] = biological target: T2, human ETA receptors (Homo sapiens, UniProt P25101); test: Inhibition of endothelin binding to recombinant ETA receptors; settings: 125I-endothelin, baculovirus-insect cell membranes, 20° C. 2 hours or 4° C. 24 hours
T2 construct: made in house; host or cells: baculovirus-infected insect cells
T2 sequence (P25101 21-427): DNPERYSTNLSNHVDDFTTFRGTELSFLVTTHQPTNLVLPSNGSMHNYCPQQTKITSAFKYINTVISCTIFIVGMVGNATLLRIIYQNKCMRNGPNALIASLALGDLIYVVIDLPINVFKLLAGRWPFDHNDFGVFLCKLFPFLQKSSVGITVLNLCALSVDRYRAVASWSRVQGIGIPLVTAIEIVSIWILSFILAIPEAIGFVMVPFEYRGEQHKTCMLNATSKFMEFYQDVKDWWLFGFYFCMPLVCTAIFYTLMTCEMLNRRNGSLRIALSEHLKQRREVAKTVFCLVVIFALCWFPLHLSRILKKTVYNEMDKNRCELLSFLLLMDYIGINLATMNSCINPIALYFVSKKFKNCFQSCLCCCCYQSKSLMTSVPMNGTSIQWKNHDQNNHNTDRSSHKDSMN
Procedure: I, Inhibition of endothelin binding to recombinant ETA receptors
A cDNA coding for human ETA receptors of human placenta was cloned (M. Adachi, Y.-Y. Yang, Y. Furuichi and C-Miyamoto, BBRC 180, 1265-1272) and expressed in the baculovirus-insect cell system. Baculovirus-infected insect cells from a 23 I fermentor are centrifuged off (3000×g, 15 minutes, 4° C.) 60 hours after the infection, re-suspended in Tris buffer (5 mM, pH 7.4, 1 mM MgCl2) and again centrifuged. After a further re-suspension and centrifugation the cells are suspended in 800 ml of the same buffer and freeze-dried at -120° C. The cells disintegrate when the suspension in this hypotonic buffer mixture is thawed. After a repeated freeze-drying/thawing cycle the suspension is homogenized and centrifuged (25000 x g, 15 minutes, 4° C.). After suspension in Tris buffer (75 mM, pH 7.4, 25 mM MgCl2, 250 mM sucrose) 1 ml aliquots (protein content about 3.5 mg/ml) are stored at -85° C.
as §1, with “buffer” for “buffer,”, “5” for “35”, “I-endothelin” for “I-endotheline”, “Ci/mMol)” for “(Ci/mMol)”, “[…])” for “pM)”
as §2

| Compound | IC50 [1] | IC50 [2] |
| --- | --- | --- |
| COc1cccc(Oc2c(NS(=O)(=O)c3ccc(C(C)(C)C)cc3)nc(C(=O)O)nc2OCCO)c1 [Example 1, 6-(4-tert.butyl-phenylsulphonylamino)-4-(2-hydroxy-ethoxy)-5-(3-methoxy-phenoxy)-pyrimidine-2-carboxylic acid] | 0.08 µM | 73 µM |
| COc1ccc(Cl)c(Oc2c(NS(=O)(=O)c3ccc(C(C)(C)C)cc3)nc(C(=O)O)nc2OCCO)c1 [Example 2, 4-(4-tert.Butyl-phenylsulphonylamino)-5-(2-chloro-5-methoxy-phenoxy)-6-(2-hydroxy-ethoxy)-pyrimidine-2-carboxylic acid] |  | 1.83 µM |
| COc1ccccc1Oc1c(NS(=O)(=O)c2ccc(C(C)(C)C)cc2)nc(C(=O)O)nc1OCCO [Example 5, 6-(4-tert.butyl-phenylsulphonylamino)-4-(2-hydroxy-ethoxy)-5-(2-methoxy-phenoxy)-pyrimidine-2-carboxylic acid] | 0.29 µM | 16.4 µM |
| COc1cccc(Oc2c(NS(=O)(=O)c3ccc(C(C)(C)C)cc3)nc(C(=O)Nc3ccccc3)nc2OCCO)c1 [Example 6, 6-(4-tert.butyl-phenylsulphonylamino)-4-(2-hydroxy-ethoxy)-5-(3-methoxy-phenoxy)-pyrimidine-2-carboxylic acid phenylamide] |  | 38 µM |
| COc1ccc(S(=O)(=O)Nc2nc(C(=O)Nc3ccccc3)nc(OCCO)c2Oc2cccc(OC)c2)cc1 [Example 7, 4-(2-Hydroxy-ethoxy)-5-(3-methoxy-phenoxy)-6-(4-methoxy-phenylsulphonylamino)-pyrimidine-2-carboxylic acid phenylamide] | 0.3 µM | 18.2 µM |
| COc1ccccc1Oc1c(NS(=O)(=O)c2ccc(C(C)(C)C)cc2)nc(C(=O)Nc2ccccc2)nc1OCCO [Example 8, 6-(4-tert.Butyl-phenylsulphonylamino)-5-(2-methoxy-phenoxy)-4-(2-hydroxy-ethoxy)-pyrimidine-2-carboxylic acid phenylamide] | 0.06 µM | 13 µM |
| COc1ccc(Cl)c(Oc2c(NS(=O)(=O)c3ccc(C(C)(C)C)cc3)nc(C(=O)Nc3ccccc3)nc2OCCO)c1 [Example 9, 4-(4-tert.Butyl-phenylsulphonylamino)-5-(2-chloro-5-methoxy-phenoxy)-6-(2-hydroxy-ethoxy)-pyrimidine-2-carboxylic acid phenylamide] | 0.086 µM | 21.4 µM |
| COc1cccc(Oc2c(NS(=O)(=O)c3ccc(C(C)(C)C)cc3)nc(C(=O)Nc3nnn[nH]3)nc2OCCO)c1 [Example 10, 4-(4-tert.Butyl-phenylsulphonylamino)-6-(2-hydroxy-ethoxy)-5-(3-methoxy-phenoxy)-pyrimidine-2-carboxylic acid (1 H-tetrazol-5-yl)-amide] | 0.14 µM | 13 µM |
